SMILES strings stand for the structures. Structures can show the parent of a compound that is named as a salt.

For one assay, the target named is T1, 5-HT2 receptors (Rattus norvegicus, UniProt P14842).
T1 construct: from tissue
In words: Affinity to 5-HT2 receptors (3H-ketanserin binding). The note with it: 3H-ketanserin as ligand. The protocol:
Test 1. Affinity to 5-HT2 receptors
The binding assay is carried out essentially as described by Leysen et al. (Mol. Pharmacol. 21,301-14, 1982) using ^3 H-ketanserin as ligand.

The target of the next assay is T2, D2 -receptors (Rattus norvegicus, UniProt P61169).
T2 construct: from tissue
T2 sequence (P61169 whole entry): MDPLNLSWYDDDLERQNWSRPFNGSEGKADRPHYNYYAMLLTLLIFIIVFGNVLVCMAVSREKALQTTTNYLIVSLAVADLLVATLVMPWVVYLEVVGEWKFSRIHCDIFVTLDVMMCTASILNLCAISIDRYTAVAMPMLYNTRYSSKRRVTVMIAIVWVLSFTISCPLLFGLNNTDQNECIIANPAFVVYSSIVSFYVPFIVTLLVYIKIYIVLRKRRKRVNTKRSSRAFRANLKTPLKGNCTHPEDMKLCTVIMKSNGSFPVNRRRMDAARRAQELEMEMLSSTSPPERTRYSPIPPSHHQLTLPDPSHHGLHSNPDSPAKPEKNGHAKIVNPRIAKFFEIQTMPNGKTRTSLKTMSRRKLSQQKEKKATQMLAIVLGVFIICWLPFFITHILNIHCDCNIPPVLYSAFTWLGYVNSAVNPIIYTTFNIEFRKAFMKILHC
In words: Affinity to D2-receptors (3H-spiroperidol binding). The note with it: 3H-spiroperidol as ligand. The protocol: Test 2 Affinity to D2 -receptors.
The binding assay is carried out essentially as described by Leysen et al. (Mol. Pharmacol. 21,301-14, 1982) using ^3 H-spiroperidol as ligand.

T1 sequence (P14842 whole entry): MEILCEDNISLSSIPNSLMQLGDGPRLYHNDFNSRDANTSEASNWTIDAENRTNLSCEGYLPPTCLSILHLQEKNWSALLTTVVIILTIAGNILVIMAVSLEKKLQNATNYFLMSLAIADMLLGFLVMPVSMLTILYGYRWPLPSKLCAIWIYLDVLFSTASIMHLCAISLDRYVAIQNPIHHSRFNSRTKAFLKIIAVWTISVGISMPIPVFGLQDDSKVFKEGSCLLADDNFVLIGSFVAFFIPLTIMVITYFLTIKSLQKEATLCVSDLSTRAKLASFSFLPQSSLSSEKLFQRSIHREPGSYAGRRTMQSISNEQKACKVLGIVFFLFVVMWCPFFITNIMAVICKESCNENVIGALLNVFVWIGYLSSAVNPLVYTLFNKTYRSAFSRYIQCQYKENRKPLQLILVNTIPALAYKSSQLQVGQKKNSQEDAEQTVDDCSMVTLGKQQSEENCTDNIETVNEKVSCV

As for `CCNC(=O)N1CCN(CCOC(c2ccc(F)cc2)c2ccc(F)cc2)CC1` [3:1, 4-[2-[(4,4'Difluorobenzhydryl)oxy]-ethyl]-N-ethyl-1-piperazinecarboxamide hydrochloride], the Ki at 5-HT2 receptors was 60 nM; at D2 -receptors, over 10000 nM.
The matching figures for `CNC(=S)N1CCN(CCOC(c2ccc(F)cc2)c2ccc(F)cc2)CC1` [3:4, 4-[2-[(4,4'Difluorobenzhydryl)oxy]-ethyl]-N-methyl-1-piperazinethiocarboxamide hydrochloride]: 20 nM and 1600 nM.
Taken in the same sequence, the figures for `O=C(N1CCCC1)N1CCN(CCOC(c2ccc(F)cc2)c2ccc(F)cc2)CC1` [6:2, 1-[2-[(4,4'-Difluorobenzhydryl)oxy]ethyl]-4-(pyrrolidino-carbonyl)piperazine hydrochloride] were 15 nM and 1780 nM.
The matching figures for `CCNC(=O)N1CCN(CCCC(c2ccc(F)cc2)c2ccc(F)cc2)CC1` [Amperozide, reference compound]: 17 nM and 540 nM.

For the origin of these results see patent publication US5574031A, “Piperazine carboxamides” (priority 1992, dated 1996).
